Assay results published in patent US10941435B2, “Methods and compositions for detecting or measuring caspases or apoptosis” (priority 2016, dated 2021).

Tests used:
[1] = tested on: Jurkat cells; assay: Flow cytometric detection of caspase activity and apoptosis, staurosporine dilution series; assay type: cell-based
Experimental: Jurkat cells in log phase were resuspended in complete medium (RPMI-1640, supplemented with 10% Fetal Bovine Serum, 2 mM L-glutamine & 55 U/mL) and adjusted to a concentration of 2×10^6 cells per milliliter. 100 μl of cells were aliquoted in each well of a 96-well, V-bottom microplate so that 8 dilutions in triplicate were tested for each substrate.
Drug dilutions for treating cells were created by adding 1000 μL of complete medium containing 2 μM Staurosporine, 1:2 dilutions of this were added to 500 μL of complete medium, so that a series of 8 dilutions of Staurosporine were created.
100 μL of the media/Staurosporine mixtures were added to each well so that 3 wells of cells contained the highest dose, and then repeated for the next set of 3 wells.
Cells were incubated at 37° C., 5% CO2 in a standard cell culture incubator for 4 hours.
After the 4 hour incubation, each well had 1 μL of caspase substrate added so that the final concentration of the substrate was 2 μM of substrate in 200 μL of media. […]
At the end of the incubation, cells were analyzed using an ATTUNE® NXT Acoustic Focusing Cytometer (Thermo Fisher Scientific, Waltham. Mass.) using the 488 nm excitation and 530/30 nm emission filters to detect CELLEVENT™ Green, or the 405 nm excitation laser and the 440/50 nm emission filters to detect Compound 1. […]

[2] = tested on: Jurkat cells; assay: Flow cytometry of Jurkat cells treated with 1 μM staurosporine for 1 hour, then Compound 1; assay type: cell-based; conditions: for positive population, density plots: not shown
Experimental: In another experiment, Jurkat cells treated with 1 μM Staurosporine for 1 hour (FIG. 5A) or untreated control cells (FIG. 5B) were then treated with Compound 1. Cells were then analyzed on an ATTUNE® NXT flow cytometer. The cells were oriented on a SSC/FSC plot to include both low and high side scatter cells, but to exclude debris and gated to exclude doublets (not shown).

[3] = tested on: HeLa cells; assay: Fluorescence microscopy detection of caspase activity and apoptosis, nuclear intensity and Z'; assay type: cell-based; conditions: 1 μM versus 1 nM staurosporine, 18 hour incubation, HCSStudio
Experimental: HeLa cells at a density of 7500 cells/well were incubated overnight in growth media (MEM+10% FBS. L-glutamine and Pen-Strep). Half of the plate was treated with 1 μM Staurosporine (FIG. 8B), while the other half was treated with 1 nM Staurosporine (FIG. 8A). After an 18 hour incubation (37° C., 5% CO2), all cells were incubated with SYT®82 (FIGS. 8A and 8B, left panels) and Compound 1 (FIGS. 8A and 8B, center panels). The average intensity of Compound 1 in the cellular nuclear region was calculated using HCSStudio (Compartmental Analysis Bioapplication), and a Z′ was determined (Z′=0.63).

[4] = tested on: HeLa cells; assay: Fluorescence microscopy and HCS staurosporine dose-response; assay type: cell-based; conditions: 5 hours; for recognition of apoptotic cells, imaging: 5 μM Compound 1 or 9 or 4 μM CELLEVENT Green 3/7, 10 μM to 0 μM staurosporine, FIG. 9A-9C; for dose-response curve of dye fluorescence to staurosporine: 5 μM dye, 10 μM to 0 μM staurosporine, CX5 HCS, FIG. 9D
Experimental: The dye/staurosporine stock solution was diluted 1:10 onto HeLa cells in complete media for a final concentration starting at 5 μM Compound 1 or Compound 9, or 4 μM CELLEVENT Green 3/7 and 10 μM staurosporine and ending at 0 μM staurosporine. After a 5 hour incubation at 37° C., live cells were imaged using white light, DAPI and FITC filters. The cells were then fixed and stained with HCS […]™ Deep Red stain (Thermo Fisher Scientific, Waltham, Mass.) and quantified on a […]™ CX5 High Content Screening (HCS) Platform (Thermo Fisher Scientific, Waltham, Mass.).

[5] = tested on: BPAEC cells; assay: Dye toxicity experiment, 48 hour incubation, imaging; conditions: 5 μM dye 48 hours, then 1 μM staurosporine overnight
Experimental: In another experiment to look at dye toxicity. BPAEC cells were incubated overnight in growth media (DMEM+10% FBS). […] After the 48 hour incubation, DMSO (control) or 1 μM staurosporine (final concentration) was added to a subset of the dye-treated cells and incubated overnight at 37° C.

[6] = tested on: Jurkat cells; assay: Flow cytometry of Jurkat cells +/- 0.5 μM staurosporine, with SYTOX Dead Cell Stain; assay type: cell-based; conditions: Jurkat cells +/- 0.5 μM staurosporine 3.5 hours, 1 μM dye 30 min, FIG. 7A/7B
Experimental: In yet another experiment, Jurkat cells were resuspended at 1×10^6 cells/ml in RPMI medium+10% FBS and aliquoted into 0.2 ml samples. The cells were treated with 0.5 μM Staurosporine (+STR) or without (−STR) for 3.5 hours at 37° C. […] 1 μl SYTOX™ Dead Cell Stain (Thermo Fisher Scientific, Waltham. Mass.) was added to the cells and incubated for at least 15 min. Cells were analyzed on an ATTUNE™ NXT flow cytometer as described above and were analyzed without washing.

| SMILES | positive cells (percent positive of intact single cells) ([1]; 1 μM staurosporine 4 hours, 2 μM substrate 30 minutes, FIG. 4A/4B) [%] | detection of apoptosis over the entire staurosporine concentration range, CELLEVENT Green 3/7 versus Compound 1 ([1]; 8 staurosporine dilutions in triplicate, 2 μM substrate, FIG. 3) | Compound 1 positive cells, histograms ([2]; Jurkat cells treated with 1 μM staurosporine for 1 hour, FIG. 5A) [%] | positive population, density plots ([2]; Jurkat cells treated with 1 μM staurosporine for 1 hour) [%] | Compound 1 positive cells, histograms ([2]; untreated control Jurkat cells (no staurosporine) stained with Compound 1, FIG. 5B) [%] | positive population, density plots ([2]; untreated control Jurkat cells (no staurosporine) stained with Compound 1) [%] | Z' from average intensity of Compound 1 in the cellular nuclear region [3] | recognition of apoptotic cells, imaging [4] | dose-response curve of dye fluorescence to staurosporine [4] | detection of staurosporine-induced apoptotic cells after long incubation with dye [5] | distinction of non-apoptotic from apoptotic cell populations [6] |
| --- | --- | --- | --- | --- | --- | --- | --- | --- | --- | --- | --- |
| CC(=O)N[C@@H](CC(=O)O)C(=O)N[C@@H](CCC(=O)O)C(=O)N[C@H](C(=O)N[C@@H](CC(=O)O)C(=O)NCCN(C)c1ccc(-c2nc3ccc(-c4nc5ccc(N6CCN(C)CC6)cc5[nH]4)cc3[nH]2)cc1)C(C)C [Compound 1] | 84.9 | essentially no difference | 3.49 | 3.55 | 1.30 | 1.32 | 0.63 | recognize apoptotic cells | good induction of apoptosis | able to detect the staurosporine-induced apoptotic cells |  |
| CC(=O)N[C@@H](CC(=O)O)C(=O)N[C@@H](CCC(=O)O)C(=O)N[C@H](C(=O)N[C@@H](CC(=O)O)C(=O)NCCCCCN(C)c1ccc(-c2nc3ccc(-c4nc5ccc(N6CCN(C)CC6)cc5[nH]4)cc3[nH]2)cc1)C(C)C [Compound 9] |  |  |  |  |  |  |  | recognize apoptotic cells | good induction of apoptosis | able to detect the staurosporine-induced apoptotic cells | distinguished non-apoptotic from apoptotic cell populations |
